In paper PMC5983823, “Screening of Natural Product Derivatives Identifies Two Structurally Related Flavonoids as Potent Quorum Sensing Inhibitors against Gram-Negative Bacteria” (International Journal of Molecular Sciences, 2018):

What was measured:
[1] = system: P. aeruginosa and E. coli biofilms; test: Transmitted light microscopy of biofilms; type: cell-based, Pseudomonas aeruginosa, Escherichia coli; details: 100 µM, all the tested strains, crystal violet, 40×
Protocol: For imaging, bacteria were allowed to adhere and form microcolonies on coverslips. Briefly, 5 mL of diluted cultures (10^6 CFU/mL) of P. aeruginosa and E. coli was added to 6-well plates containing glass coverslips (22 mm × 22 mm). The plates were incubated at 37 °C without shaking for 2 h. Thereafter, bacterial suspensions were removed, and the wells were washed once with PBS. Fresh LB with and without the lead compounds at a final concentration of 100 µM was added to the wells, and the plates were incubated at 37 °C for 22 h. At the end of 24 h, coverslips were rinsed three times with MQ-water and air dried followed by staining with 0.23% (v/v) crystal violet solution. Coverslips were allowed to dry and visualized under a Transmitted Light Microscope (EVOS® XL Imaging System, InvitrogenTM, Thermo Fisher Scientific, San Jose, CA, USA) at a magnification of 40×.

P. aeruginosa PAO1 = test: Swarming motility assay; type: cell-based; details: Pseudomonas aeruginosa, PAO1, read-out: Inhibition of swarming motility
Protocol: Assays were performed according to the protocols previously described in [30, 74] with some modifications. The swarming agar was prepared in MQ-water consisting of 0.3% (w/v) agar, 1% (w/v) peptone, 0.5% (w/v) yeast extract and 0.5% (w/v) sodium chloride, and the swimming agar similarly but without yeast extract. Compounds at a final concentration of 400 µM and 100 µM were pre-mixed with 5 mL of agar, and poured over solidified LB agar plates (10 mL/petri dish) as overlays. The plates were allowed to dry at 30 °C for three hours followed by point inoculation with 2 µL of P. aeruginosa PAO1 (~10^8 CFU/mL) and incubation at 37 °C for 18 h. Quercetin was used as a control. Diameters of the swarming and swimming zones were measured after the incubation periods.

E. coli K-12 = test: Viable plate counts (bacterial growth); type: cell-based, Escherichia coli; details: 100 and 400 µM, 24 h
Protocol: Effects of the leads on bacterial growth were assessed by performing viable plate counts. Compounds at final concentrations of 100 and 400 µM and cultures of P. aeruginosa (ATCC 9027, ATCC 15422 and PA01) and E. coli K-12 (10^6 CFU/mL) were simultaneously added to the 96-microtiter well plates (200 µL per well). Untreated bacteria were included in control wells. The plates were incubated at 37 °C, without shaking for 24 h. At the end of this period, bacterial suspensions were transferred from the wells to Eppendorf tubes, and the tubes were sonicated for 10 min (25 °C, 35 kHz, Sonorex Digitec water bath (Bandelin, Zurich, Switzerland)). Each suspension was serially diluted in LB and plated on LB agar. The number of viable bacteria in each test concentration was counted after overnight incubation at 37 °C. Results were expressed as CFU/mL.

[2] = system: human lung (HL) epithelial cells; test: Cytotoxicity testing (CellTiter Glo); type: cell-based; details: 24 h exposure
Protocol: (§1) Human lung (HL) epithelial cells were grown in RPMI 1640 (Biowhittaker, Lonza, Viewers, Bornem, Belgium) supplemented with 10% inactivated fetal bovine serum (FBS), 2 mM L-glutamine and gentamycin 20 µg/mL, and mouse monocyte macrophage RAW 264.7 cells in DMEM medium supplemented with 10% FBS and 20 µg/mL gentamycin. Cells (3 × 10^5 cells/mL) were seeded into 96-microtiter well plates (Cellstar TC, Greiner Bio-One GmbH, Frickenhausen, Germany), 200 µL per well, and incubated at 37 °C in 5% CO2 24 h before exposure to the compounds. After the incubation, culture medium was discarded, the wells were washed with PBS, and the compound dilutions prepared in culture media were added as triplicates to a final volume of 200 µL. Usnic acid (200 µM, Sigma Aldrich, St. Louis, MO, USA) was included as positive control and DMSO (1%) as solvent control. Plates were incubated for additional 24 h. At the end of 24 h, media was removed, wells were washed twice with PBS and 100 µL of PBS was added. CellTiter Glo® reagent (Promega, Madison, WI, USA) was prepared according to manufacturer’s instructions, and 100 µL was added to the wells. The plates were shaken for two minutes and equilibrated at room temperature for 10 min prior to measuring the luminescence using Varioskan LUX multimode plate reader (Thermo Scientific, Vantaa, Finland). Inhibition of cell viability was calculated in relation to the untreated cells.

[3] = system: mouse monocyte macrophage (RAW 264.7) cells; test: Cytotoxicity testing (CellTiter Glo); type: cell-based; details: 24 h exposure
Protocol: as §1

[4] = system: RhlI/RhlR controlled rhamnolipid biosynthesis in P. aeruginosa; design: method as in ref 73 = [73]; 73. Manner S. Fallarero A. Abo Akademi University and University of Helsinki, Finland Evaluation of the Effects of the Leads in Rhamnolipid Biosynthesis Personal communication 2017; details: personal communication ref 73; cited from earlier work

Row | SMILES | Effect on biofilm structure and formation [1] | inhibition at 400 µM (P. aeruginosa PAO1) [%] | Bactericidal activity by viable plate counts (E. coli K-12) | Inhibition-% of cell viability ([2]; 10 µM) | Inhibition-% of cell viability ([2]; 40 µM) | Inhibition-% of cell viability ([2]; 100 µM) | Inhibition-% of cell viability ([3]; 10 µM) | Inhibition-% of cell viability ([3]; 40 µM) | Effect on rhamnolipid biosynthesis [4] | Inhibition-% of cell viability ([3]; 100 µM)
1 | CCC(=O)Oc1c(-c2ccccc2Cl)oc2ccccc2c1=O [Compound 2117, 2-(2-chlorophenyl)-4-oxochromen-3-yl propanoate] | alteration of biofilm structure and reduced biofilm formation | 72.1 | Neither of the leads displayed any bactericidal activity | N.I. | N.I. | 11.2 ± 4.9% | N.I. | N.I. | did not affect | 
2 | CCCCCCCCCC(=O)Oc1c(-c2ccc(OC)cc2)oc2ccccc2c1=O [Compound 2896, 2-(4-methoxyphenyl)-4-oxochromen-3-yl decanoate] | alteration of biofilm structure and reduced biofilm formation | 69.8 | Neither of the leads displayed any bactericidal activity | N.I. | N.I. | did not display any effects on the cell viability and N.I. | N.I. | N.I. | did not affect | did not display any effects on the cell viability and N.I.
